PubChem BioAssay (NCI)
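Step 1: Grow cells in 96-well plates. Step 2: Expose to compound for 48 hours at 5 concentrations. Step 3: Interpolate endpoints linearly; if unreached, use highest concentration. TGI: concentration producing complete growth inhibition.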

Columns and labels:
Assay in all cases: inhibition of tumour cell growth, NCI panel, 48 h
786-0 renal = test system: 786-0 renal
A549 NSCLC = test system: A549 NSCLC
ACHN renal = test system: ACHN renal
BT-549 breast = test system: BT-549 breast
CAKI-1 renal = test system: CAKI-1 renal
CCRF-CEM leukemia = test system: CCRF-CEM leukemia
COLO 205 colon = test system: COLO 205 colon
DU-145 prostate = test system: DU-145 prostate
EKVX NSCLC = test system: EKVX NSCLC
HCT-116 colon = test system: HCT-116 colon
HCT-15 colon = test system: HCT-15 colon
HL-60(TB) leukemia = test system: HL-60(TB) leukemia
HOP-62 NSCLC = test system: HOP-62 NSCLC
HS 578T breast = test system: HS 578T breast
HT29 colon = test system: HT29 colon
IGROV1 ovarian = test system: IGROV1 ovarian
K-562 leukemia = test system: K-562 leukemia
KM12 colon = test system: KM12 colon
LOX IMVI melanoma = test system: LOX IMVI melanoma
M14 melanoma = test system: M14 melanoma
MCF7 breast = test system: MCF7 breast
MDA-MB-231 breast = test system: MDA-MB-231 breast
MDA-MB-435 = test system: MDA-MB-435
MDA-N = test system: MDA-N
MOLT-4 leukemia = test system: MOLT-4 leukemia
NCI-H226 lung = test system: NCI-H226 lung
NCI-H460 lung = test system: NCI-H460 lung
NCI-H522 lung = test system: NCI-H522 lung
NCI/ADR-RES ovarian = test system: NCI/ADR-RES ovarian
OVCAR-3 ovarian = test system: OVCAR-3 ovarian
OVCAR-4 ovarian = test system: OVCAR-4 ovarian
OVCAR-5 ovarian = test system: OVCAR-5 ovarian
OVCAR-8 ovarian = test system: OVCAR-8 ovarian
PC-3 prostate = test system: PC-3 prostate
RPMI-8226 leukemia = test system: RPMI-8226 leukemia
RXF 393 renal = test system: RXF 393 renal
SF-268 CNS = test system: SF-268 CNS
SF-295 CNS = test system: SF-295 CNS
SF-539 CNS = test system: SF-539 CNS
SK-MEL-2 melanoma = test system: SK-MEL-2 melanoma
SK-MEL-28 melanoma = test system: SK-MEL-28 melanoma
SK-MEL-5 melanoma = test system: SK-MEL-5 melanoma
SK-OV-3 ovarian = test system: SK-OV-3 ovarian
SN12C renal = test system: SN12C renal
SNB-19 CNS = test system: SNB-19 CNS
SNB-75 CNS = test system: SNB-75 CNS
SR leukemia = test system: SR leukemia
SW-620 colon = test system: SW-620 colon
T-47D breast = test system: T-47D breast
TK-10 renal = test system: TK-10 renal
U251 CNS = test system: U251 CNS
UACC-257 melanoma = test system: UACC-257 melanoma
UACC-62 melanoma = test system: UACC-62 melanoma
UO-31 renal = test system: UO-31 renal
HCC-2998 colon = test system: HCC-2998 colon
HOP-92 NSCLC = test system: HOP-92 NSCLC
MALME-3M melanoma = test system: MALME-3M melanoma
NCI-H23 lung = test system: NCI-H23 lung
A498 renal = test system: A498 renal

## Cc1ccc(S(=O)(=O)N(CCN2C(=O)c3ccccc3C2=O)c2cc3c4c(c2)Oc2cc(N(CCN5C(=O)c6ccccc6C5=O)S(=O)(=O)c5ccc(C)cc5)cc5c2C4(C)c2c(cc(N(CCN4C(=O)c6ccccc6C4=O)S(=O)(=O)c4ccc(C)cc4)cc2O5)O3)cc1
786-0 renal
  TGI: > 100 µM
A549 NSCLC
  TGI: > 100 µM
ACHN renal
  TGI: > 100 µM
BT-549 breast
  TGI: > 100 µM
CAKI-1 renal
  TGI: > 100 µM
CCRF-CEM leukemia
  TGI: > 100 µM
COLO 205 colon
  TGI: > 100 µM
DU-145 prostate
  TGI: > 100 µM
EKVX NSCLC
  TGI: > 100 µM
HCT-116 colon
  TGI: > 100 µM
HCT-15 colon
  TGI: > 100 µM
HL-60(TB) leukemia
  TGI: > 100 µM
HOP-62 NSCLC
  TGI: > 100 µM
HS 578T breast
  TGI: > 100 µM
HT29 colon
  TGI: > 100 µM
IGROV1 ovarian
  TGI: > 100 µM
K-562 leukemia
  TGI: > 100 µM
KM12 colon
  TGI: > 100 µM
LOX IMVI melanoma
  TGI: > 100 µM
M14 melanoma
  TGI: > 100 µM
MCF7 breast
  TGI: > 100 µM
MDA-MB-231 breast
  TGI: 45.8 µM
MDA-MB-435
  TGI: > 100 µM
MDA-N
  TGI: > 100 µM
MOLT-4 leukemia
  TGI: > 100 µM
NCI-H226 lung
  TGI: > 100 µM
NCI-H460 lung
  TGI: > 100 µM
NCI-H522 lung
  TGI: > 100 µM
NCI/ADR-RES ovarian
  TGI: > 100 µM
OVCAR-3 ovarian
  TGI: > 100 µM
OVCAR-4 ovarian
  TGI: > 100 µM
OVCAR-5 ovarian
  TGI: > 100 µM
OVCAR-8 ovarian
  TGI: > 100 µM
PC-3 prostate
  TGI: > 100 µM
RPMI-8226 leukemia
  TGI: > 100 µM
RXF 393 renal
  TGI: > 100 µM
SF-268 CNS
  TGI: > 100 µM
SF-295 CNS
  TGI: > 100 µM
SF-539 CNS
  TGI: > 100 µM
SK-MEL-2 melanoma
  TGI: > 100 µM
SK-MEL-28 melanoma
  TGI: > 100 µM
SK-MEL-5 melanoma
  TGI: > 100 µM
SK-OV-3 ovarian
  TGI: > 100 µM
SN12C renal
  TGI: > 100 µM
SNB-19 CNS
  TGI: > 100 µM
SNB-75 CNS
  TGI: > 100 µM
SR leukemia
  TGI: > 100 µM
SW-620 colon
  TGI: > 100 µM
T-47D breast
  TGI: > 100 µM
TK-10 renal
  TGI: > 100 µM
U251 CNS
  TGI: > 100 µM
UACC-257 melanoma
  TGI: > 100 µM
UACC-62 melanoma
  TGI: > 100 µM
UO-31 renal
  TGI: > 100 µM

## Nc1nc(N)c2c(Cl)c(CNc3ccc(C(=O)NC(CC(=O)O)C(=O)O)cc3)ccc2n1 (stereo not drawn)
786-0 renal
  TGI: > 100 µM
A549 NSCLC
  TGI: > 100 µM
ACHN renal
  TGI: > 100 µM
BT-549 breast
  TGI: > 100 µM
CAKI-1 renal
  TGI: > 100 µM
COLO 205 colon
  TGI: > 100 µM
DU-145 prostate
  TGI: > 100 µM
HCC-2998 colon
  TGI: > 100 µM
HCT-116 colon
  TGI: > 100 µM
HCT-15 colon
  TGI: > 100 µM
HL-60(TB) leukemia
  TGI: > 100 µM
HOP-62 NSCLC
  TGI: > 100 µM
HOP-92 NSCLC
  TGI: > 100 µM
HS 578T breast
  TGI: > 100 µM
HT29 colon
  TGI: > 100 µM
IGROV1 ovarian
  TGI: 0.415 µM
K-562 leukemia
  TGI: > 100 µM
KM12 colon
  TGI: > 100 µM
LOX IMVI melanoma
  TGI: > 100 µM
M14 melanoma
  TGI: > 100 µM
MALME-3M melanoma
  TGI: > 100 µM
MCF7 breast
  TGI: > 34.2 µM
MDA-MB-231 breast
  TGI: > 100 µM
MDA-MB-435
  TGI: > 100 µM
MDA-N
  TGI: > 100 µM
MOLT-4 leukemia
  TGI: > 100 µM
NCI-H226 lung
  TGI: > 100 µM
NCI-H23 lung
  TGI: > 100 µM
NCI-H460 lung
  TGI: > 100 µM
NCI/ADR-RES ovarian
  TGI: > 100 µM
OVCAR-3 ovarian
  TGI: > 100 µM
OVCAR-4 ovarian
  TGI: > 100 µM
OVCAR-8 ovarian
  TGI: > 100 µM
PC-3 prostate
  TGI: > 100 µM
RPMI-8226 leukemia
  TGI: > 100 µM
RXF 393 renal
  TGI: > 100 µM
SF-268 CNS
  TGI: > 100 µM
SF-295 CNS
  TGI: > 100 µM
SF-539 CNS
  TGI: 31.9 µM
SK-MEL-2 melanoma
  TGI: > 100 µM
SK-MEL-5 melanoma
  TGI: > 100 µM
SK-OV-3 ovarian
  TGI: > 93.3 µM
SN12C renal
  TGI: > 100 µM
SNB-19 CNS
  TGI: > 100 µM
SNB-75 CNS
  TGI: > 100 µM
SR leukemia
  TGI: > 100 µM
SW-620 colon
  TGI: > 100 µM
T-47D breast
  TGI: > 100 µM
TK-10 renal
  TGI: > 100 µM
U251 CNS
  TGI: > 100 µM
UACC-257 melanoma
  TGI: > 100 µM
UACC-62 melanoma
  TGI: > 100 µM
UO-31 renal
  TGI: > 100 µM

## COC(=O)CCc1ccc2c(c1)[C@H](C(=O)OC)[C@@H](c1ccc(O)cc1)O2
A498 renal
  TGI: > 100 µM
A549 NSCLC
  TGI: > 100 µM
ACHN renal
  TGI: > 100 µM
BT-549 breast
  TGI: > 100 µM
CAKI-1 renal
  TGI: > 100 µM
CCRF-CEM leukemia
  TGI: > 100 µM
COLO 205 colon
  TGI: > 100 µM
DU-145 prostate
  TGI: > 100 µM
EKVX NSCLC
  TGI: > 100 µM
HCC-2998 colon
  TGI: > 100 µM
HCT-116 colon
  TGI: 47.1 µM
HCT-15 colon
  TGI: > 100 µM
HL-60(TB) leukemia
  TGI: > 100 µM
HOP-62 NSCLC
  TGI: > 100 µM
HOP-92 NSCLC
  TGI: > 100 µM
HS 578T breast
  TGI: > 100 µM
HT29 colon
  TGI: > 100 µM
IGROV1 ovarian
  TGI: > 100 µM
K-562 leukemia
  TGI: > 100 µM
KM12 colon
  TGI: > 100 µM
LOX IMVI melanoma
  TGI: > 100 µM
M14 melanoma
  TGI: > 100 µM
MALME-3M melanoma
  TGI: > 100 µM
MCF7 breast
  TGI: > 100 µM
MDA-MB-231 breast
  TGI: > 100 µM
MDA-MB-435
  TGI: > 100 µM
MDA-N
  TGI: > 100 µM
MOLT-4 leukemia
  TGI: > 100 µM
NCI-H226 lung
  TGI: 67.1 µM
NCI-H23 lung
  TGI: > 100 µM
NCI-H460 lung
  TGI: > 100 µM
NCI-H522 lung
  TGI: > 100 µM
NCI/ADR-RES ovarian
  TGI: > 100 µM
OVCAR-3 ovarian
  TGI: > 100 µM
OVCAR-4 ovarian
  TGI: > 100 µM
OVCAR-5 ovarian
  TGI: > 100 µM
OVCAR-8 ovarian
  TGI: > 100 µM
PC-3 prostate
  TGI: > 100 µM
RPMI-8226 leukemia
  TGI: > 100 µM
SF-268 CNS
  TGI: > 100 µM
SF-295 CNS
  TGI: > 100 µM
SF-539 CNS
  TGI: 65.9 µM
SK-MEL-2 melanoma
  TGI: > 100 µM
SK-MEL-28 melanoma
  TGI: > 100 µM
SK-MEL-5 melanoma
  TGI: > 100 µM
SK-OV-3 ovarian
  TGI: > 100 µM
SN12C renal
  TGI: > 100 µM
SNB-19 CNS
  TGI: > 100 µM
SR leukemia
  TGI: > 100 µM
SW-620 colon
  TGI: > 100 µM
T-47D breast
  TGI: > 100 µM
TK-10 renal
  TGI: > 100 µM
U251 CNS
  TGI: > 100 µM
UACC-257 melanoma
  TGI: > 100 µM
UACC-62 melanoma
  TGI: > 100 µM
UO-31 renal
  TGI: > 100 µM
